≈ marks a conversion by molar mass, not a printed value. Marks after values point to notes of the source that are not given here.
Key:
[1] = pH 6.8
[2] = in vivo
[3] = system: Gram-positive pathogens such as staphylococci and enterococci, and Gram-negative pathogens such as E.coli, Klebsiella, Proteus, Serratia, Citrobacter, and …; assay: Antibacterial potency (MIC) at acidic pH of 5.5, summary; format: cell-based; conditions: acidic pH of 5.5, some organisms
MRSA STA-4 = assay: In-vitro antimicrobial activity test (MIC, NCCLS); format: cell-based, Staphylococcus aureus
Text: (§1) The test method was in accordance with the standard NCCLS protocol.

[4] = system: Mupirocin-resistant Staph STA-34; assay: In-vitro antimicrobial activity test (MIC, NCCLS); format: cell-based, Staphylococcus aureus
Text: as §1

[5] = system: human liver cell-line Hep-G2; assay: Human liver cell line cytotoxicity assay (Minimum Toxic Dose); format: cell-based; conditions: 3 hours exposure, 4 days incubation, Almar blue
Description: The procedure involved cultivation of cells of human liver cell-line Hep-G2 in DMEM medium containing 5% foetal bovine and exposure to various concentrations of trovafloxacin and S-(−)-Nadifloxacin for 3 hours. The drug containing medium was then replaced with a fresh medium and cells were incubated in 5% CO2 atmosphere at 37° C. for 4 days. Almar blue dye which is an indicative of active respiration was then added to individual sample to access the toxicity of the drugs. The hepatotoxic potential of a drug is expressed in terms of Minimum Toxic Dose (MTD) which is defined as minimum concentration of a drug which brings about inhibition of colour change from blue to pink.

[6] = Acute intravenous toxicity in mice; conditions: acute intravenous, mice
[7] = system: S.aureus strain bearing Nor A efflux pump; format: cell-based; conditions: Nor A efflux pump strain vs strain devoid of efflux pump
Description: Using this set of MIC values, % loss in potency due to efflux was calculated for each of the fluoroquinolone in Table 5

[8] = mouse, in vivo
[9] = system: Gram-positive and Gram-negative bacteria; conditions: cited from earlier work
Serratia marcescens 2702 = assay: Effect of pH on potency of fluoroquinolones (MIC at pH 5.5 and 7.0); format: cell-based; conditions: MIC pH 7 vs pH 5.5
Text: (§2) The test method was in accordance with the standard NCCLS protocol employing test media adjusted at pH 5.5 and 7.0.

P. rettgeri N 1764 = assay: as above; format: cell-based; conditions: MIC pH 7 vs pH 5.5
Text: as §2

MRSE STE-22 = assay: In-vitro antimicrobial activity test (MIC, NCCLS); format: cell-based, Staphylococcus epidermidis
Text: as §1

[10] = system: Enterococcus faecalis ATCC 29212; assay: In-vitro antimicrobial activity test (MIC, NCCLS); format: cell-based
Text: as §1

[11] = system: Escherichia coli ATCC 25922; assay: In-vitro antimicrobial activity test (MIC, NCCLS); format: cell-based
Text: as §1

[12] = system: Mycobacterium tuberculosis ATCC 27294; assay: In-vitro antimicrobial activity test (MIC, NCCLS); format: cell-based
Text: as §1

Pseudomonas aeruginosa = assay: In-vitro antimicrobial activity test (MIC, NCCLS); format: cell-based
Text: as §1

Mycobacterium avium = assay: In-vitro antimicrobial activity test (MIC, NCCLS); format: cell-based
Text: as §1

Propioni bacterium acnes = assay: In-vitro antimicrobial activity test (MIC, NCCLS); format: cell-based
Text: as §1

[13] = system: Staphylococcus aureus ATCC 25923; assay: In-vitro antimicrobial activity test (MIC, NCCLS); format: cell-based
Text: as §1

[14] = system: Mycobacterium intracellulare; assay: In-vitro antimicrobial activity test (MIC, NCCLS); format: cell-based
Text: as §1

Serratia marcescens = assay: In-vitro antimicrobial activity test (MIC, NCCLS); format: cell-based
Text: as §1

Haemophilus influenzae = assay: In-vitro antimicrobial activity test (MIC, NCCLS); format: cell-based
Text: as §1

Bacteroides fragilis = assay: In-vitro antimicrobial activity test (MIC, NCCLS); format: cell-based
Text: as §1

[15] = system: Streptococcus pneumoniae ATCC 6303; assay: In-vitro antimicrobial activity test (MIC, NCCLS); format: cell-based
Text: as §1

[16] = system: Viridans group Streptococci; assay: In-vitro antimicrobial activity test (MIC, NCCLS); format: cell-based
Text: as §1

Corynebacterium jeikeium = assay: In-vitro antimicrobial activity test (MIC, NCCLS); format: cell-based
Text: as §1

Enterococcus faecium = assay: In-vitro antimicrobial activity test (MIC, NCCLS); format: cell-based
Text: as §1

[17] = system: Chryseobacterium meningosepticum; assay: In-vitro antimicrobial activity test (MIC, NCCLS); format: cell-based
Text: as §1

Streptococcus pyogenes = assay: In-vitro antimicrobial activity test (MIC, NCCLS); format: cell-based
Text: as §1

in vivo = assay: in vivo; design: species or system Swiss mice; conditions: mouse
Description: The blood levels of RS-(±)-Nadifloxacin and S-(−)-Nadifloxacin administered orally to Swiss mice at a dose of 30mg/kg are shown in Table 3 with respect to the AUC (μg/ml.hr), monitored from 15 minutes to 4 hours.

For `CC(=O)O.C[C@@H](N)C(=O)OC1CCN(c2c(F)cc3c(=O)c(C(=O)O)cn4c3c2CC[C@@H]4C)CC1` [Example 30, 8-{4-[2(R)-Amino-propionyloxy]piperidin-1-yl}-9-fluoro-5(S)-methyl-6,7-dihydro-1-oxo-1H,5H-benzo[i,j]quinolizine-2-carboxylic acid, acetate], the Water solubility [1] was >250 mg/mL.
With `C[C@H]1CCc2c(N3CCC(O)CC3)c(F)cc3c(=O)c(C(=O)O)cn1c23` [S-(−)-Nadifloxacin, S-(−)-9-fluoro-8-(4-hydroxy-piperidin-1-yl)-5-methyl-6,7-dihydro-1-oxo-1H,5H benzo[i,j]quinolizine-2-carboxylic acid] the phototoxicity potential [2] was “negligible phototoxicity potential”, the “MIC improves by” value [3] was 100% and the MIC (MRSA STA-4) was 0.4 µg/mL (≈ 1.11 µM). For the same compound, the MIC [4] was 0.4 µg/mL (≈ 1.11 µM), the “dosage tolerated by Hep-G-2 cells, times higher than trovafloxacin” value [5] was 4 times and the LD50 [6] was >400* mg/kg. The “% loss in potency for S. aureus bearing Efflux pump” value [7] was 0%, the “acute intravenous toxicity compared with RS-(±)-Nadifloxacin” value [8] was “significantly lower” and the “in-vitro activity compared with racemic Nadifloxacin” value [9] was “approximtely twice as active”. For the same compound, the “% change in potency at pH 5.5, loss (−)/gain (+)” value (Serratia marcescens 2702) was 0.00%, the “% change in potency at pH 5.5, loss (−)/gain (+)” value (P. rettgeri N 1764) was 0.00% and the MIC (MRSE STE-22) was 0.4 µg/mL (≈ 1.11 µM). The MIC [10] was 0.2 µg/mL (≈ 0.555 µM), the MIC [11] was 0.2 µg/mL (≈ 0.555 µM) and the MIC [12] was 0.8 µg/mL (≈ 2.22 µM). The MIC (Pseudomonas aeruginosa) was 1.56 µg/mL (≈ 4.33 µM), the MIC (Mycobacterium avium) was 3.12 µg/mL (≈ 8.66 µM) and the MIC (Propioni bacterium acnes) was 0.1 µg/mL (≈ 0.277 µM). The MIC [13] was 0.025 µg/mL (≈ 0.0694 µM), the MIC [14] was 1.56 µg/mL (≈ 4.33 µM) and the MIC (Serratia marcescens) was 0.4 µg/mL (≈ 1.11 µM). For the same compound, the MIC (Haemophilus influenzae) was 0.025 µg/mL (≈ 0.0694 µM), the MIC (Bacteroides fragilis) was 0.8 µg/mL (≈ 2.22 µM) and the MIC [15] was 0.2 µg/mL (≈ 0.555 µM). The MIC [16] was 0.2 µg/mL (≈ 0.555 µM), the MIC (Corynebacterium jeikeium) was 0.05 µg/mL (≈ 0.139 µM) and the MIC (Enterococcus faecium) was 0.4 µg/mL (≈ 1.11 µM). For the same compound, the MIC [17] was 0.8 µg/mL (≈ 2.22 µM), the MIC (Streptococcus pyogenes) was 0.2 µg/mL (≈ 0.555 µM) and the “oral bioavailability, times higher than RS-(±)-Nadifloxacin” value (in vivo) was 2 times. The AUC (in vivo; po, 30 mg/kg) was 33580 ng·h/mL.

From US6750224B1, “Antibacterial optically pure benzoquinolizine carboxylic acids, processes, compositions and methods of treatment” (priority 1999, dated 2004)
